From PMC10359466, “Identification of a small-molecule inhibitor that selectively blocks DNA-binding by Trypanosoma brucei replication protein A1” (Nature Communications, 2023)
“And” between values parts separate entries of the source, which are not always exact repeats. Identical values can stand only once. “Also recorded” adds a separate entry of the source. Like-named read-outs stand apart in the source and are kept apart here.

Columns and labels:
LmexRPA1 DBD-AB [1] = assay: MST inhibition of ssDNA-binding activity, LmexRPA1 DBD-AB; set-up: species or system L. mexicana; details: dT32, MST
Source text: (§1) Samples were then loaded into MST capillaries.
(§2) We used one site binding to obtain a dissociation constant (Kd) and standard 4-parameter logistic curve (Sigmoidal curve) analysis to obtain the IC50 value of JC-229. We used GraphPad Prism software.

TbRPA1 DBD-AB S105T = assay: MST inhibition of ssDNA-binding activity, TbRPA1 DBD-AB S105T mutant; set-up: species or system T. brucei; details: dT32, 30 nM protein
Source text: as §1, §2

TbRPA1 DBD-AB = TbRPA1 DBD-AB (Trypanosoma brucei brucei, UniProt Q384B5); assay: EMSA inhibition of ssDNA binding, TbRPA1 DBD-AB; details: 0.625-80 µM, 5´IRDye800-dT32
TbRPA1 DBD-AB, sequence (Q384B5 entry or part of it): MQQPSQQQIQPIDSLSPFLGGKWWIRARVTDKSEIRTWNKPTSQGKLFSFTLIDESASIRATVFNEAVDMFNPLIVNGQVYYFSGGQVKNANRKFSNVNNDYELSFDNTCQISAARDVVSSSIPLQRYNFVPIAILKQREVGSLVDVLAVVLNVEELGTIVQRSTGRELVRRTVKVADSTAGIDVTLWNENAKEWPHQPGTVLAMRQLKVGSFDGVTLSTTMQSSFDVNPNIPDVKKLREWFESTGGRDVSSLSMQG

HEK293 = assay: AlamarBlue cell viability of HEK293 cells; assay type: cell-based, human; details: for EC50: HEK293, 72 h
Method: (§3) To determine the inhibitory effect of JC-229 on human cells, HeLa and HEK293 cells were suspended in 180 μl D-MEM with 10% FBS and plated at a density of 2 × 10^4 cells/ml in triplicate. […] Percent viability was plotted using GraphPad Prism software. […] We estimated the EC50 values using the concentration of JC-229 that causes a 50% reduction of cell viability (inhibitor vs. normalized response, variable slope).

T. brucei cells [2] = assay: AlamarBlue cell viability / growth inhibition of T. brucei
Method: Synergy H1 microplate reader (BioTek) was used with 560/590 nm (excitation/emission) filter settings and relative fluorescence unit (RFU) values were obtained. The percentage of viable cells were calculated from the RFU values.
Trypanosome cells were seeded at 1 × 10^3 cells/ml density in 180 µl in a 96-well culture plate in triplicate. […] DMSO was used as a vehicle control at 0.0075%.

[3] = test system: T. brucei TbRPA1 sKO cells; assay: AlamarBlue cytotoxicity on TbRPA1 single knock-out (sKO) T. brucei cells
Method: To determine the viability of TbRPA1-depleted cells, we carried out the AlamarBlue assay (Thermo Fisher, catalog number A50101), an established colorimetric technique that detects metabolically active cells by measuring resorufin converted from resazurin by reducing the environment of live cells[70]. Cells from each time point were incubated with AlamarBlue dye for 4–6 h, and the percentage of live cells was determined[70]. Synergy H1 microplate reader (BioTek) was used with 560/590 nm (excitation/emission) filter settings and relative fluorescence unit (RFU) values were obtained. The percentage of viable cells were calculated from the RFU values.

HsRPA1 DBD-AB [4] = target: T1, HsRPA1 DBD-AB (Homo sapiens, UniProt P27694); assay: EMSA inhibition of ssDNA binding, HsRPA1 DBD-AB; details: highest concentration 80 µM
T1 construct: were generated by PCR-amplifying the DBD-AB domain and cloning into a pET28a vector; made in house; host or cells: E. coli BL21
T1 sequence (P27694 181-427 limits assumed): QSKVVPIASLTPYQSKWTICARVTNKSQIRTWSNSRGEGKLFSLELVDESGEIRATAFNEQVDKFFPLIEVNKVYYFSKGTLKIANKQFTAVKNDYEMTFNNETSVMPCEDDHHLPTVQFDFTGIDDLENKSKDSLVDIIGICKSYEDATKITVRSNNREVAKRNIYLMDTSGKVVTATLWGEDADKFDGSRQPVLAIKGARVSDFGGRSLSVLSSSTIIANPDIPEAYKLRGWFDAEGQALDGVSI

HsRPA complex [5] = target: T2, HsRPA complex (Homo sapiens, UniProt P27694); assay: MST inhibition of ssDNA-binding activity, HsRPA complex; details: dT32, MST
T2 construct: made in house; host or cells: E. coli BL21
T2 sequence (P27694 whole entry): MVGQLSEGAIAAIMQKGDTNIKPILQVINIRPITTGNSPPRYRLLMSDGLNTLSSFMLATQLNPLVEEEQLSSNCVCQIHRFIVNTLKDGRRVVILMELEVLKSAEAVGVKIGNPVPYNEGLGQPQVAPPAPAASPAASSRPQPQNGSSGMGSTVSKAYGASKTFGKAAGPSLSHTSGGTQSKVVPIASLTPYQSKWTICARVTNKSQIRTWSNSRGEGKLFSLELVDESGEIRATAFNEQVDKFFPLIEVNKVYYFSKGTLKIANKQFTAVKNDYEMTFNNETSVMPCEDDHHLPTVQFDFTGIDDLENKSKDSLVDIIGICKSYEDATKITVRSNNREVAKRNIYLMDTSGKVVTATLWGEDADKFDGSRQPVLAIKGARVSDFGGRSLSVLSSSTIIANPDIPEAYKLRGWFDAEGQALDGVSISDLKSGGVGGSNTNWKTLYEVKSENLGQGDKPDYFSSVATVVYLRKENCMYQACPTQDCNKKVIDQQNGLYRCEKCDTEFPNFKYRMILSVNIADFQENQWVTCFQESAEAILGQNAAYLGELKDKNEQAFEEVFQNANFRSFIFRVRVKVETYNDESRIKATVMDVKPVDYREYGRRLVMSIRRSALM
T2 sequence (P15927 whole entry partner): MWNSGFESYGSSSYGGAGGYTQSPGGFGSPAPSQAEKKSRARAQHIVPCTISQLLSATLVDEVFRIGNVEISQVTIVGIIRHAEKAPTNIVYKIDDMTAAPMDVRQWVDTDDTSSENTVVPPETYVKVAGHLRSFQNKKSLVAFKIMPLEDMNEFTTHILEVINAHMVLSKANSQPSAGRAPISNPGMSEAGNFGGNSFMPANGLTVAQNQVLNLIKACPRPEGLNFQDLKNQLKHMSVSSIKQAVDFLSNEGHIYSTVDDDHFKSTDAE
T2 sequence (P35244 whole entry partner): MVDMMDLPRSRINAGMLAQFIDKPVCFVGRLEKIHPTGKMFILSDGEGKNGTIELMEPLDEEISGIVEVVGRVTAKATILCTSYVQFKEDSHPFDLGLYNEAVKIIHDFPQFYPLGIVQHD
Source text: as §1, §2

TcRPA1 DBD-AB [6] = assay: EMSA inhibition of ssDNA binding, TcRPA1 DBD-AB; set-up: species or system T. cruzi
TcRPA1 DBD-AB [7] = assay: MST inhibition of ssDNA-binding activity, TcRPA1 DBD-AB; set-up: species or system T. cruzi; details: dT32, 30 nM protein
Source text: as §1, §2

HsRPA complex [8] = target: T2, HsRPA complex; assay: EMSA inhibition of ssDNA binding, HsRPA complex
T. brucei cells [9] = assay: Microscopic analysis of treated cells (DAPI); assay type: cell-based, Trypanosoma brucei; details: 10 µM
Method: For microscopic analysis, untreated or JC-229 treated cells were seeded, and fixed with 1% paraformaldehyde for 10 min at room temperature. Cells were then washed with 1x PBS and stained with DAPI (0.5 µg/ml) (Sigma). Images were captured using fluorescence microscopy (EVOS M5000, Thermo Fisher Scientific) at 40x magnification and edited with Adobe Photoshop.

[10] = test system: TbRPA complex containing S105T mutation; assay type: binding, T. brucei; details: dT32
HsRPA1 DBD-AB [11] = target: T1, HsRPA1 DBD-AB; assay: MST inhibition of ssDNA-binding activity, HsRPA1 DBD-AB; details: dT32, MST
Source text: as §1, §2

LmexRPA1 DBD-AB [12] = assay: EMSA inhibition of ssDNA binding, LmexRPA1 DBD-AB; set-up: species or system L. mexicana
Method: Increasing concentrations of recombinant protein (from 0.05 to 100 nM) were incubated with 2 nM of 5´IRDye800-labeled oligo in binding buffer (20 mM Tris, pH 7.5, 10 mM NaCl, 10 mM MgCl2, 2 mM dithiothreitol (DTT), 10% glycerol, and 0.1 mg/ml BSA) for 15 min at room temperature. About 4 μl of 6x Orange dye (Sigma) was added to the 20 μl reaction, and from that, 8 μl was separated on a non-denaturing polyacrylamide gel in 1x Tris-Borate-EDTA (TBE, Invitrogen) buffer; 4% gel for RPA complex and 8% for DBD-AB, DBD-A, or DBD-B proteins. Gels were pre-run for 1 h at a constant 100 V. Protein–ssDNA complex and unbound ssDNA were separated by running the gel at a constant 80 V at 4 °C in the dark and then visualized using LI-COR Odyssey imaging system and quantified with ImageJ software.
Samples were separated on a non-denaturing polyacrylamide gel and analyzed as described above in ssDNA-binding assay.

TcRPA1 DBD-AB T105S = target: T3, TcRPA1 DBD-AB T105S (Trypanosoma cruzi, UniProt Q4DXC9, T105S); assay: MST inhibition of ssDNA-binding activity, TcRPA1 DBD-AB T105S mutant; set-up: species or system T. cruzi
T3 sequence (Q4DXC9 1-247 T105S): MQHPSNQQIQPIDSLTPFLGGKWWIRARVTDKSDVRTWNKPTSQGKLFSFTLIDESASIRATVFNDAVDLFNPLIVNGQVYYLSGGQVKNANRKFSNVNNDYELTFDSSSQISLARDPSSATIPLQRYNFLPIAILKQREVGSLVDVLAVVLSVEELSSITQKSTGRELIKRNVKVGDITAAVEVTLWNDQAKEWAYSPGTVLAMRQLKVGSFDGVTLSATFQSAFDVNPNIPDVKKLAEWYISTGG
Source text: as §1, §2

TbRPA complex [13] = target: T4, TbRPA complex (Trypanosoma brucei brucei, UniProt Q384B5); assay: EMSA inhibition of ssDNA binding, TbRPA complex
T4 sequence (Q38DK0 entry or part of it): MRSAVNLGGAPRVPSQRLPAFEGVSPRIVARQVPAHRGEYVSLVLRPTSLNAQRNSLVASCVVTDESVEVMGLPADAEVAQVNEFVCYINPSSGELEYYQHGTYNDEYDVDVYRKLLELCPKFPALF
T4 sequence (Q57ZN9 entry or part of it, further chain): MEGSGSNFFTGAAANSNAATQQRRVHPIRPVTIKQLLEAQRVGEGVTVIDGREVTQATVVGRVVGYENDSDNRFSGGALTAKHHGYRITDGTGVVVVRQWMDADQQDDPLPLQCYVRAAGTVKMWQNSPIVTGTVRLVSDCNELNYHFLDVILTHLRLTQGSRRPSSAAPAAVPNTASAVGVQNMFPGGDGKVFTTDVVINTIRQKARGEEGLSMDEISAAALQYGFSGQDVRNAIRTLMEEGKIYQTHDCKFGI
T4 sequence (Q384B5 entry or part of it): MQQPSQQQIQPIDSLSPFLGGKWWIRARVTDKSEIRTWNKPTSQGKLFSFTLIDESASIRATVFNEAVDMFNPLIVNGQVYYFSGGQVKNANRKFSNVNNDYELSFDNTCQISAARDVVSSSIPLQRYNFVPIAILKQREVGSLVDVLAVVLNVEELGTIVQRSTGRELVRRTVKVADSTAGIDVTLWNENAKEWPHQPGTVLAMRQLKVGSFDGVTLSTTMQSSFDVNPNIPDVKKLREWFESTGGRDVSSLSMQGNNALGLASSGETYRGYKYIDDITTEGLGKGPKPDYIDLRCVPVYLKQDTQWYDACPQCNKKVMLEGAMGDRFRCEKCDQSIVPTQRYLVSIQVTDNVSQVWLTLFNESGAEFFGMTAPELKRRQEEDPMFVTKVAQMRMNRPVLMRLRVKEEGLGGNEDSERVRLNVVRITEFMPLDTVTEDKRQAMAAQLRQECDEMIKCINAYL

HeLa = assay: AlamarBlue cell viability of HeLa cells; assay type: cell-based, human
Method: as §3

[14] = target: T5, HsDBD-F and ATRIP interaction (Homo sapiens, UniProt P27694); assay: MST inhibition of the HsDBD-F binding with ATRIP peptide; details: 50 nM Cy5-labeled ATRIP peptide
T5 construct: We purified 6xHis-HsDBD-F (amino acids 1–181), synthesized ATRIP peptide; made in house; host or cells: E. coli BL21 (protein); solid-phase synthesis (peptide)
T5 sequence (P27694 1-181): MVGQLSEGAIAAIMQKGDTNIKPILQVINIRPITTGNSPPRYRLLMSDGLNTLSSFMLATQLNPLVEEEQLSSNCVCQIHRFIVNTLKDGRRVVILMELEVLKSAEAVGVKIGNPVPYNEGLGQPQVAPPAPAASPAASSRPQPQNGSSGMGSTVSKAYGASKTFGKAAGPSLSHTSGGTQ
Source text: as §1, §2

TbRPA complex [15] = target: T4, TbRPA complex; assay: MST inhibition of ssDNA-binding activity, TbRPA complex; set-up: species or system T. brucei
Source text: as §1, §2

Cc1ccc(C(=O)Nc2ccc(Cl)c(Cl)c2)cc1S(=O)(=O)Nc1ccc(Cl)c(Cl)c1 [JC-229, N-(3,4-dichlorophenyl)−3-(N-(3,4-dichlorophenyl)sulfamoyl)−4-methylbenzamide]
IC50, inhibition of LmexRPA1 DBD-AB ssDNA binding (LmexRPA1 DBD-AB [1]): No inhibition; also recorded: did not inhibit | IC50, inhibition of TbRPA1 DBD-AB S105T ssDNA binding (TbRPA1 DBD-AB S105T): No inhibition; also recorded: did not inhibit | Inhibition of ssDNA binding of TbDBD-AB (EMSA) (TbRPA1 DBD-AB): inhibited by JC-229 in a dose-dependent manner | Inhibition of HEK293 at EC50 to T. brucei (HEK293; 6.5 µM): barely inhibited | EC50 (HEK293; Homo sapiens, 0.5-50 μM, 72 h, AlamarBlue, inhibitor vs. normalized response, variable slope (Fig. 3f)): 18 µM | EC50 (HEK293; Homo sapiens, 72 h, Sigmoidal, 4-PL (Suppl. Table 1-B)): 10.3 µM | inhibition at 50 µM (HEK293; Homo sapiens, HEK293, 50 µM, 72 h, read-out: Inhibition of HEK293 at maximum concentration): < 100% | Effect on parasite proliferation (T. brucei cells [2]; 50 µM, 3 days, AlamarBlue): abolished parasite proliferation | EC50 (T. brucei cells [2]; Trypanosoma brucei, 72 h, read-out: EC50 (T. brucei growth inhibition), WT T. brucei, 72 h, AlamarBlue, standard 4-PL curve): 6.6 µM | EC50 (T. brucei cells [2]; Trypanosoma brucei, 72 h, read-out: EC50 (T. brucei), 0.5-50 μM, 72 h, AlamarBlue, inhibitor vs. normalized response, variable slope (Fig. 3f)): 6.54 µM | EC50 (T. brucei cells [2]; Trypanosoma brucei, read-out: EC50, WT (WT/WT), Fig. 8d WT strain, 72 h, [Inhibitor] vs. norm response, variable slope): 5.68 µM | EC50 (T. brucei cells [2]; Trypanosoma brucei, read-out: EC50, WT (WT/WT), Suppl. Table 5-B, Sigmoidal, 4-PL): 5.65 µM | EC50 (T. brucei cells [2]; read-out: EC50 (T. brucei growth inhibition), WT T. brucei, 72 h, AlamarBlue, standard 4-PL curve): 6.58 µM and 6 µM | EC50 (T. brucei cells [2]; read-out: EC50 (T. brucei), 0.5-50 μM, 72 h, AlamarBlue, inhibitor vs. normalized response, variable slope (Fig. 3f)): 6.5 µM | EC50 (T. brucei cells [2]; read-out: EC50, WT (WT/WT), Fig. 8d WT strain, 72 h, [Inhibitor] vs. norm response, variable slope): 5.7 µM | EC50 ([3]; Trypanosoma brucei, 72 h, read-out: EC50, single KO (∆/WT), 72 h, [Inhibitor] vs. norm response, variable slope): 4.93 µM | EC50 ([3]; Trypanosoma brucei, read-out: EC50, single KO (∆/WT), Suppl. Table 5-B, Sigmoidal, 4-PL): 4.61 µM | EC50 ([3]; read-out: EC50, single KO (∆/WT), 72 h, [Inhibitor] vs. norm response, variable slope): 5 µM | Inhibition of ssDNA binding of HsDBD-AB (EMSA) (HsRPA1 DBD-AB [4]): did not inhibit | IC50, inhibition of HsRPA complex ssDNA binding (HsRPA complex [5]): No inhibition; also recorded: no inhibitory effect | Inhibition of TcRPA1 DBD-AB ssDNA binding (EMSA) (TcRPA1 DBD-AB [6]): did not inhibit | IC50, inhibition of TcRPA1 DBD-AB ssDNA binding (TcRPA1 DBD-AB [7]): No inhibition; also recorded: did not inhibit | Effect on binding of HsRPA complex to ssDNA (EMSA) (HsRPA complex [8]): no effect | Microscopic analysis of treated cells (T. brucei cells [9]): leads to cell death | Effect on ssDNA binding of TbRPA S105T mutant complex (EMSA) [10]: not affected | IC50, inhibition of HsRPA1 DBD-AB ssDNA binding (HsRPA1 DBD-AB [11]): No inhibition; also recorded: no inhibitory effect | Inhibition of LmexRPA1 DBD-AB ssDNA binding (EMSA) (LmexRPA1 DBD-AB [12]): did not inhibit | IC50 (TcRPA1 DBD-AB T105S): 159 µM | Inhibition of TbRPA complex binding to ssDNA (EMSA) (TbRPA complex [13]): inhibited | Inhibition of HeLa at EC50 to T. brucei (HeLa; 6.5 µM): barely inhibited | EC50 (HeLa; Homo sapiens, HeLa, 72 h, 0.5-50 μM, 72 h, AlamarBlue, inhibitor vs. normalized response, variable slope (Fig. 3f)): 32 µM | EC50 (HeLa; Homo sapiens, HeLa, 72 h, Sigmoidal, 4-PL (Suppl. Table 1-B)): 13.2 µM | inhibition at 50 µM (HeLa; Homo sapiens, HeLa, 50 µM, 72 h, read-out: Inhibition of HeLa at maximum concentration): < 100% | IC50 [14]: ~60 µM and 60.8 µM | IC50 (TbRPA complex [15]; dT20, 25 nM complex, MST (Supplementary Fig. 11d)): 33.9 nM and ~33.9 nM | IC50 (TbRPA complex [15]; dT32, 25 nM complex, MST (Fig. 5d)): 24.5 nM | IC50 (TbRPA complex [15]; dT32, 25 nM complex, MST (Supplementary Fig. 11d, 18g)): 33.9 nM and ~33.9 nM
